Test results: PubChem BioAssay AID1963862 (Molecular Pharmacology Branch, DTP, NCI, 2024)

Test system: KRAS patient-derived spheroids with HUVEC/MSC, viability
Assay: Anticancer human tumor 941728-121-R-J1-PDC patient-derived lung adenocarcinoma cell line growth inhibition [KRAS2]
Conditions: for IC50: curve of first compound; for viability, T/C: stronger effect = lower value
Description: Multicellular complex tumor spheroid response to RAS pathway inhibitors in combination with a targeted agents in patient-derived cell lines with oncogenic KRAS variants from multiple cancer types
A high-throughput screen of multi-cell type tumor spheroids was designed to identify active combinations of targeted small molecules and KRAS pathway inhibitors. Complex spheroids include a stromal component modeled by human endothelial cells (HUVEC) and fibroblasts modeled by human mesenchymal stem cells (MSCs). The concentration ranges selected for each drug and investigational agent were based upon clinically achievable concentrations if the clinical Cmax of the agent was known.
Compounds. The drugs and investigational agents: BI-3406 (NSC825286), BAY-293 (NSC824723), batoprotafib (TNO155; NSC825523), sotorasib (AMG 510; NSC818433), MRTX1257 (NSC819558), elimusertib (BAY 1895344; NSC800525), molibresib (GSK525762; NSC774829), temuterkib (LY3214996; NSC803410), venetoclax (NSC766270), alisertib (NSC759677), olaparib (NSC753686), talazoparib (NSC767125), erdafitinib (NSC781556), ipatasertib (NSC767898), cabozantinib (NSC761068), nintedanib (NSC756659), abemaciclib (NSC768073), docetaxel (NSC628503), trametinib (NSC758246), and sapanisertib (NSC764658) were obtained from the National Cancer Institute (NCI) Developmental Therapeutics Program Chemical Repository. The FDA-approved anticancer drug set is available from the Developmental Therapeutics Program. […] The stock solutions were prepared in dimethyl sulfoxide (DMSO, Sigma-Aldrich, St. Louis, MO, cat. D2650) at 800-fold the tested concentration and stored at -70 degrees C prior to their use. All drugs and investigational agents were tested over a range starting from a high concentration at or near the clinical Cmax and decreasing in half-log increments. If the clinical Cmax for an agent had not been determined, the highest concentration tested was 10 microM.
Cell Culture. All cells were maintained in an incubator at 37 degrees C and 5% CO2 with 95% humidity. The PDC lines were cultured according to standard operating procedures established by the NCI PDMR (https://pdmr.cancer.gov/sops/default.htm). Briefly, all PDCs were thawed and cultured in Matrigel-coated flasks prepared with a working solution of 1X Ham's F-12 nutrient mix, without supplementation (Invitrogen, Waltham, MA, cat. 11765054), 100 U/mL penicillin-streptomycin (Invitrogen, cat. 15140122), and 2.5% Matrigel (Corning Inc., Corning, NY, cat. 354248) for the first three passages. All PDCs were cultured in complete DMEM/F-12 media containing advanced DMEM/F-12 (Invitrogen, cat. 12634028), 4.9% defined fetal bovine serum, heat inactivated (HyClone Laboratories Inc., Logan, UT, cat. SH30070.03HI), 389 ng/mL hydrocortisone (Sigma-Aldrich, cat. H4001), 9.7 ng/mL human EGF recombinant protein (Invitrogen, cat. PHG0313), 23.4 microg/mL adenine (Sigma-Aldrich, cat. A2786), 97.3 U/mL penicillin-streptomycin (Invitrogen, cat. 15140122), 1.9 mM L-glutamine (Invitrogen, cat. 25030081), and 9.7 microM Y-27632 dihydrochloride (Tocris Bioscience, Bristol, United Kingdom, cat. 1254). The PDCs were cultured in complete DMEM/F12 media without 9.7 microM Y-27632 dihydrochloride for at least two passages prior to the screen. The established cell line HOP-62 was cultured in RPMI 1640 medium, HEPES (Invitrogen, cat. 22400105) with 10% defined fetal bovine serum (HyClone Laboratories Inc., cat. SH30070.03) and 2 mM L-glutamine (Invitrogen, cat. 25030081). The pooled donor HUVEC were cultured in endothelial cell growth medium 2 (PromoCell, Heidelberg, Germany, cat. C-22011) and the hMSC were cultured in mesenchymal stem cell growth medium 2 (PromoCell, cat. C-28009). For all experiments, HUVEC and hMSC were used at passages </=5, while the malignant cell lines were used at passages </=15. […]

[1] = second compound 0.0316 µM, first compound 0.01 µM
[2] = second compound 0.0316 µM, first compound 0.0316 µM
[3] = second compound 0.0316 µM, first compound 0.1 µM
[4] = second compound 0.0316 µM, first compound 0.316 µM
[5] = second compound 0.0316 µM, first compound 1 µM
[6] = second compound 0.0316 µM, first compound 3.16 µM
[7] = second compound 0.1 µM, first compound 0.01 µM
[8] = second compound 0.1 µM, first compound 0.0316 µM
[9] = second compound 0.1 µM, first compound 0.1 µM
[10] = second compound 0.1 µM, first compound 0.316 µM
[11] = second compound 0.1 µM, first compound 1 µM
[12] = second compound 0.1 µM, first compound 3.16 µM
[13] = second compound 0.316 µM, first compound 0.01 µM
[14] = second compound 0.316 µM, first compound 0.0316 µM
[15] = second compound 0.316 µM, first compound 0.1 µM
[16] = second compound 0.316 µM, first compound 0.316 µM
[17] = second compound 0.316 µM, first compound 1 µM
[18] = second compound 0.316 µM, first compound 3.16 µM
[19] = second compound 1 µM, first compound 0.01 µM
[20] = second compound 1 µM, first compound 0.0316 µM
[21] = second compound 1 µM, first compound 0.1 µM
[22] = second compound 1 µM, first compound 0.316 µM
[23] = second compound 1 µM, first compound 1 µM
[24] = second compound 1 µM, first compound 3.16 µM
[25] = second compound 3.16 µM, first compound 0.01 µM
[26] = second compound 3.16 µM, first compound 0.0316 µM
[27] = second compound 3.16 µM, first compound 0.1 µM
[28] = second compound 3.16 µM, first compound 0.316 µM
[29] = second compound 3.16 µM, first compound 1 µM
[30] = second compound 3.16 µM, first compound 3.16 µM
[31] = second compound 0.0316 µM, first compound 10 µM
[32] = second compound 0.1 µM, first compound 10 µM
[33] = second compound 0.316 µM, first compound 10 µM
[34] = second compound 1 µM, first compound 10 µM
[35] = second compound 3.16 µM, first compound 10 µM
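Note: spheroids exposed to agents for seven days before readout.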

Row | Structure (SMILES) | IC50 (second compound 0.0316 µM) | IC50 (second compound 0.1 µM) | IC50 (second compound 0.316 µM) | IC50 (second compound 1 µM) | IC50 (second compound 3.16 µM) | viability, T/C [2] | viability, T/C [3] | viability, T/C [4] | viability, T/C [5] | viability, T/C [6] | viability, T/C [8] | viability, T/C [9] | viability, T/C [10] | viability, T/C [11] | viability, T/C [14] | viability, T/C [15] | viability, T/C [20] | viability, T/C [21] | viability, T/C [26] | viability, T/C [27] | other results
1 | CC(=O)OC12COC1CC(O)C1(C)C(=O)C(O)C3=C(C)C(OC(=O)C(O)C(NC(=O)OC(C)(C)C)c4ccccc4)CC(O)(C(OC(=O)c4ccccc4)C21)C3(C)C (stereo not given) + C=CC(=O)N1CCN(c2nc(OCC3CCCN3C)nc3c2CCN(c2cccc4cccc(C)c24)C3)CC1CC#N | < 10 nM | < 10 nM | < 10 nM | < 10 nM | < 10 nM | 28.4% | 26.8% | 25.7% | 29.1% | 26.7% | 22.2% | 21.9% | 22.9% | 24.6% | 21.6% | 21.1% | 23.4% | 21.1% | 33.1% | 26.4% | viability, T/C [1]: 28.2%; viability, T/C [7]: 24.6%; viability, T/C [12]: 26.2%; viability, T/C [13]: 22.8%; viability, T/C [16]: 22.1%; viability, T/C [17]: 21.1%; viability, T/C [18]: 24.4%; viability, T/C [19]: 21.2%; viability, T/C [22]: 19.8%; viability, T/C [23]: 21.7%; viability, T/C [24]: 20.8%; viability, T/C [25]: 27.9%; viability, T/C [28]: 27.3%; viability, T/C [29]: 26.9%; viability, T/C [30]: 27.9%
2 | CN(C)C/C=C/C(=O)Nc1cc2c(Nc3ccc(F)c(Cl)c3)ncnc2cc1O[C@H]1CCOC1 + C=CC(=O)N1CCN(c2nc(OCC3CCCN3C)nc3c2CCN(c2cccc4cccc(C)c24)C3)CC1CC#N | < 0.316 nM | < 0.316 nM | < 0.316 nM | < 0.316 nM | < 0.316 nM | 20.5% | 20.6% |  |  |  | 20.4% | 18.6% |  |  | 20.5% | 18.3% | 19.2% | 21.2% | 0.45% | 1.8% | viability, T/C (second compound 0.0316 µM, first compound 0.000316 µM): 22.7%; viability, T/C (second compound 0.0316 µM, first compound 0.001 µM): 22.4%; viability, T/C (second compound 0.0316 µM, first compound 0.00316 µM): 22.2%; viability, T/C [1]: 23.3%; viability, T/C (second compound 0.1 µM, first compound 0.000316 µM): 21.3%; viability, T/C (second compound 0.1 µM, first compound 0.001 µM): 19.3%; viability, T/C (second compound 0.1 µM, first compound 0.00316 µM): 18.8%; viability, T/C [7]: 20.1%; viability, T/C (second compound 0.316 µM, first compound 0.000316 µM): 21.1%; viability, T/C (second compound 0.316 µM, first compound 0.001 µM): 20.9%; viability, T/C (second compound 0.316 µM, first compound 0.00316 µM): 21.4%; viability, T/C [13]: 21.5%; viability, T/C (second compound 1 µM, first compound 0.000316 µM): 21.1%; viability, T/C (second compound 1 µM, first compound 0.001 µM): 21.2%; viability, T/C (second compound 1 µM, first compound 0.00316 µM): 20.9%; viability, T/C [19]: 19.1%; viability, T/C (second compound 3.16 µM, first compound 0.000316 µM): 1.16%; viability, T/C (second compound 3.16 µM, first compound 0.001 µM): 0.2%; viability, T/C (second compound 3.16 µM, first compound 0.00316 µM): 0.46%; viability, T/C [25]: 0.19%
3 | COC(=O)c1ccc2c(C(=Nc3ccc(N(C)C(=O)CN4CCN(C)CC4)cc3)c3ccccc3)c(O)[nH]c2c1 + C=CC(=O)N1CCN(c2nc(OCC3CCCN3C)nc3c2CCN(c2cccc4cccc(C)c24)C3)CC1CC#N | < 31.6 nM | < 31.6 nM | < 31.6 nM | < 31.6 nM | < 31.6 nM | 30.6% | 26.9% | 23.9% | 22.5% | 8.16% | 31.4% | 27% | 23.2% | 18.1% | 29.8% | 26.9% | 24.2% | 23.9% | 0.27% | 0.31% | viability, T/C [31]: 6.26%; viability, T/C [12]: 4.92%; viability, T/C [32]: 5.67%; viability, T/C [16]: 23.7%; viability, T/C [17]: 18.1%; viability, T/C [18]: 4.34%; viability, T/C [33]: 3.09%; viability, T/C [22]: 23.4%; viability, T/C [23]: 13%; viability, T/C [24]: 0.56%; viability, T/C [34]: 0.29%; viability, T/C [28]: 0.12%; viability, T/C [29]: 0.11%; viability, T/C [30]: 0.07%; viability, T/C [35]: 0.11%
4 | O=C(c1cc(Cc2n[nH]c(=O)c3ccccc23)ccc1F)N1CCN(C(=O)C2CC2)CC1 + C=CC(=O)N1CCN(c2nc(OCC3CCCN3C)nc3c2CCN(c2cccc4cccc(C)c24)C3)CC1CC#N | < 31.6 nM | < 31.6 nM | < 31.6 nM | < 31.6 nM | < 31.6 nM | 36.5% | 36.5% | 59.6% | 29.1% | 26.9% | 32.3% | 33.3% | 30.5% | 32.5% | 36.1% | 33.7% | 32.6% | 36.2% | 0.38% | 4.45% | viability, T/C [31]: 36.2%; viability, T/C [12]: 30.6%; viability, T/C [32]: 35.4%; viability, T/C [16]: 33.3%; viability, T/C [17]: 33.7%; viability, T/C [18]: 33.9%; viability, T/C [33]: 34.2%; viability, T/C [22]: 35.2%; viability, T/C [23]: 32.8%; viability, T/C [24]: 32%; viability, T/C [34]: 35.7%; viability, T/C [28]: 1.13%; viability, T/C [29]: 0.34%; viability, T/C [30]: 0.38%; viability, T/C [35]: 0.53%
